# Results reported in patent publication US20130296372A1, “USE OF PRO-[…] UK-2A FOR CONTROL OF SOYBEAN RUST” (DOW AGROSCIENCES LLC, priority 2012, published 2013).
# Tested on: soybean Asian rust—Phakopsora pachyrhizi (PHAKPA)
# Test: Efficacy on soybean rust: greenhouse soybean plants sprayed, then inoculated with spore suspension
# Type: in vivo, Phakopsora pachyrhizi on soybean plants
# Conditions: pre-inoculation; for PHAKPA Control % 14 DAA: 14 days after application; for PHAKPA Control % 12 DAA: 12 days after application
# Method: Soybean plants were inoculated with an aqueous spore suspension of the fungal pathogen (soybean Asian rust—Phakopsora pachyrhizi) at 2 h and 24 h post compound application. Additionally, infected untreated plants with sporulating lesions were placed among the test pots throughout the duration of the tests. The soybean plants were propagated from seed in a greenhouse, at a density of 3 seeds per pot containing a sandy loam. The plants were sprayed at growth stage V2 to V3 (2-3 trifoliates developed) and subsequently inoculated with the pathogen at the time intervals indicated above. Following inoculation, the plants were maintained under conditions of high humidity and at 26° C. to support spore germination and host leaf colonization. Assessments were made 12-15 days after inoculation. Aliquots of a 10% SC formulation of Compound I were diluted into water to achieve spray solutions containing 25, 100 and 400 ppm of the active ingredient. The spray solutions were also supplemented with either Trycol 5941 or one of several alternative adjuvant chemistries. Treatment solutions were sprayed to run-off using a hand held sprayer.
# [1] = 400 ppm Compound I + Trycol 5941 0.2 % v/v
structure (smiles),measurement,setting,value
COc1ccnc(C(=O)N[C@H]2COC(=O)[C@H](Cc3ccccc3)[C@@H](OC(=O)C(C)C)[C@H](C)OC2=O)c1OCOC(=O)C(C)C [Compound I],PHAKPA Control % 14 DAA,25 ppm Compound I + Trycol 5941 0.2 % v/v,D (1-25)
same,PHAKPA Control % 14 DAA,100 ppm Compound I + Trycol 5941 0.2 % v/v,C (26-50)
same,PHAKPA Control % 12 DAA,400 ppm Compound I + Agbem 0.2 % v/v,B (51-75)
same,PHAKPA Control % 12 DAA,400 ppm Compound I + Agral 0.2 % v/v,B (51-75)
same,PHAKPA Control % 12 DAA,400 ppm Compound I + Aterbane 0.2 % v/v,B (51-75)
same,PHAKPA Control % 12 DAA,400 ppm Compound I + Joint 0.2 % v/v,A (76-100)
same,PHAKPA Control % 12 DAA,400 ppm Compound I + Nimbus 0.2 % v/v,A (76-100)
same,PHAKPA Control % 12 DAA,[1],B (51-75)
same,PHAKPA Control % 14 DAA,[1],A (76-100)
same,PHAKPA Control % 12 DAA,400 ppm Compound I + Vegetable Oil 0.2 % v/v,A (76-100)
